Data set [1] can be described thus: Solubility (physicochemical properties). On the procedure:
Physicochemical properties of 5-hydroxydihydrofusarubin (I) produced by the present invention are as follows: • (1) Appearance: Orange plates • (2) Molecular formula: C₁₅H₁₈O₇ • (3) Molecular weight: 310 • (4) Melting point: 192-193°C • (5) Optical rotation: -171.4 (in 0.06% acetone solution) • (6) Ultraviolet and visible absorption spectrum: in 95% ethanol solution: λ max (nm) (logε) 211(4.17), 245(4.08), 284(3.97), 359(3.88) • (7) Infrared absorption spectrum: The infrared absorption spectrum measured in potassium bromide tablet is shown in Fig. 1. • (8) ¹H-NMR: ¹H-NMR measured in deuteriumchloroform is shown in Fig. 2. Chemical shifts were assigned as shown below. [formula] • (9) ¹³C-NMR: ¹³C-NMR measured in deuteriumchloroform is shown in Fig. 3. Chemical shifts were assigned as shown below. [formula] • (10) Solubility: Soluble in chloroform, methylene chloride, ethyl acetate, acetone, ethanol or methanol. […] Solubility in water: Insoluble under acidic or neutral condition, and soluble under alkaline condition.

The subject of data set [2] is mouse leukemia L1210 cells. As to the kind of experiment: Antitumor test, growth inhibition of L1210 cells in suspension. The data set is classed as cell-based. As to conditions: growth of mouse leukemia L1210 cells in suspension (1 x 10⁶/mouse). How it is done:
An antitumor test was carried out for 5-hydroxy dihydrofusarubin. Half value (IC₅₀) inhibiting growth of mouse leukemia L1210 cells in suspension (1 x 10⁶/mouse) was as follows: […]

Data set [3] relates to Streptococcus pneumoniae DP-1. Description: Antimicrobial test, agar plate-dilution method. The settings on record: DP1. Type of data set: cell-based. How it is done:
(§1) Minimum inhibitory concentrations (MIC) of 5-hydroxydihydrofusarubin (I) against bacteria and fungi were determined by the agar plate-dilution method.

The subject of data set [4] is Staphylococcus aureus FDA209PJC1. As to the kind of experiment: Antimicrobial test, agar plate-dilution method. The data set is classed as cell-based. How it is done: as §1
Data set [5] has as its system Bacillus subtilis ATCC 6633. Description: Antimicrobial test, agar plate-dilution method. The settings on record: ATCC6633. The data set is classed as cell-based. How it is done: as §1
In the next data set the test system is Candida albicans C-a-30. Description: Antimicrobial test, agar plate-dilution method. The data set is classed as cell-based. As to conditions: CA30. On the procedure: as §1
For data set [6], the system named is Saccharomyces cereviciae ATCC 9763. As to the kind of experiment: Antimicrobial test, agar plate-dilution method. Type of data set: cell-based. As to conditions: ATCC9763. On the procedure: as §1

≈ marks a conversion by molar mass, not a printed value.

`COc1cc(O)c2c(c1O)C(O)C1CC(C)(O)OCC1C2=O` (stereo not shown) [5-Hydroxydihydrofusarubin]: the Solubility entry in data set [1] (in chloroform, methylene chloride, ethyl acetate, acetone, ethanol or methanol) was “Soluble”; in data set [1] (in hexane or petroleum ether) it was “Sparingly soluble”. The Solubility in water entry in data set [1] (under acidic or neutral condition) is “Insoluble”; in data set [1] (under alkaline condition) it was “soluble”. Also, the IC50 in data set [2] was 9.4 ± 0.9 µg/mL (≈ 30.3 µM). Further, the MIC in data set [3] is 50 µg/mL (≈ 161 µM); in data set [4], 100 µg/mL (≈ 322 µM); in data set [5], 100 µg/mL (≈ 322 µM); in the data set on Candida albicans C-a-30, 100 µg/mL (≈ 322 µM); in data set [6], 50 µg/mL (≈ 161 µM).

One may read the IC50 as the midpoint of a concentration-inhibition curve. Higher therefore signals weaker potency in that assay. One may read the MIC as the smallest concentration in the dilution series that meets the test's criterion for growth inhibition. A low value points to greater potency.

The values above are taken from patent publication EP0234431A2, “5-Hydroxydihydrofusarubin, a process for its preparation and its use for the preparation of a medicament” (HOECHST JAPAN LIMITED, priority 1986, dated 1987).
